What follows are molecules tested against Induced myeloid leukemia cell differentiation protein Mcl-1 (Homo sapiens) (UniProt Q07820) (assay: Mcl-1/Noxa binding inhibitor potency, dose response, biochemical, TR-FRET (AID 1417)). Conditions: Mcl-1/Noxa peptide interaction, cell-free TR-FRET (terbium/rhodamine), 2 h; measured here: absolute IC50.
Induced myeloid leukemia cell differentiation protein Mcl-1 (Homo sapiens), sequence (Q07820 whole entry, looked up): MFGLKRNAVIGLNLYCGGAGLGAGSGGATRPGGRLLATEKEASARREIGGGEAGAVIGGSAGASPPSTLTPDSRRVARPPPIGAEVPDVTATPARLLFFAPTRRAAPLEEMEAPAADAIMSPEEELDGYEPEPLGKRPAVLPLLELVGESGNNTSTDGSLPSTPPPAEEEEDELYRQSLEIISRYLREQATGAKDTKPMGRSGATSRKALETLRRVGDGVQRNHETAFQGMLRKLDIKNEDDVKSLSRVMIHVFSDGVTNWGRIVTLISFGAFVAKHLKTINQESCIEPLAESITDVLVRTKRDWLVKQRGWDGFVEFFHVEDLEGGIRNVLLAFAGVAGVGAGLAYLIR
For `O=C(/C=C/c1ccc(O)c(O)c1)O[C@H](Cc1ccc(O)c(O)c1)C(=O)O`, the IC50 was less than 400 nM. In the case of `Cc1ccc(N2CC(C(=O)Nc3ccc(N(C)C)cc3)CC2=O)cc1C` (stereo not drawn), the IC50 is reported as greater than 54000 nM. `CCOC(=O)NNc1ccc2nonc2c1[N+](=O)[O-]` was tested, and the IC50 was less than 400 nM. `O=C(N/N=C\C=C\c1ccco1)c1cc(-c2ccc3ccccc3c2)n[nH]1` was tested, and the IC50 was 2110 nM. For `O=C(O)c1ccc(NS(=O)(=O)c2ccc3c(c2)C2C=CCC2C(c2ccccc2F)N3)cc1` (stereo not drawn), the IC50 was 1270 nM. `Cc1ccc2c(c1)C1C=CCC1C(C(=O)O)N2` (stereo not drawn) gave an IC50 of less than 400 nM. `O=C(COC(=O)c1ccc2c(c1)C(=O)N(Cc1ccncc1)C2=O)Nc1ccccc1[N+](=O)[O-]` showed an IC50 of 2530 nM. For `Cc1cccc(/C=C/C(=O)c2ccc(NC3=NCCCS3)cc2)c1`, the IC50 was 4900 nM. `COc1ccc2nc(N3C(=O)/C(=C/c4ccc(Cl)cc4)NC3=S)sc2c1` showed an IC50 of 1430 nM. In the case of `CCc1ccc(S(=O)(=O)/N=C2/C=C(Sc3ncn[nH]3)C(=O)c3ccccc32)cc1`, the IC50 is reported as less than 400 nM. `NC(=O)C1CCN(C2=C(Cl)C(=O)c3ccccc3C2=O)CC1` showed an IC50 of 48200 nM. Work on `COc1cc2cc3c(N)c(C(=O)Nc4sc(C)c(C)c4C#N)sc3nc2cc1OC` yielded an IC50 of 1070 nM. Molecule `Cc1sccc1/C=N/NC(=O)c1cccc2ccccc12` has an IC50 greater than 54000 nM. `O=c1/c(=C\c2cc([N+](=O)[O-])cc([N+](=O)[O-])c2O)sc2nc3ccccc3n12` gave an IC50 of less than 400 nM. `Cc1ccc(NC(=O)CN2C(=O)N/C(=C/c3cccn3-c3ccc(C(=O)O)cc3)C2=O)cc1` showed an IC50 greater than 54000 nM. `N#Cc1c(NC(=O)CSc2ncnc3sccc23)oc(-c2ccco2)c1-c1ccco1` was tested, and the IC50 was 3200 nM. `CCOC(=O)c1c(C)oc2c1c(CN1CCN(C(=O)OCC)CC1)c(O)c1ccccc12` was tested, and the IC50 was less than 400 nM. In the case of `COc1cc2c(cc1O)C[C@H]1NCCc3cc4c(c-2c31)OCO4`, the IC50 is reported as 5200 nM. `CCN(/N=C/c1ccc(N(C)C)cc1)c1nc2ccccc2[nH]1` showed an IC50 of 2060 nM. `NC1=NC(=O)/C(=C/c2cn(CCC(=O)O)nc2-c2ccc(Cl)cc2)S1` gave an IC50 of 5910 nM. In the case of `COc1ccc(-c2csc(NC(=S)NC(=O)c3cccs3)n2)cc1OC`, the IC50 is reported as 3310 nM. In the case of `Cc1nn(Cc2ccc(F)cc2)c2sc(C(=O)Nc3ccc(N4CCOCC4)cc3N3CCOCC3)cc12`, the IC50 is reported as greater than 54000 nM. `COc1ccc(N2CCC(CNS(=O)(=O)c3cccc(C(F)(F)F)c3)C2)cc1` (stereo not drawn) gave an IC50 of less than 400 nM. Work on `Cc1[nH]n(-c2ncc(-c3ccc(Cl)cc3)s2)c(=O)c1C(c1ccc(Cl)cc1)C(C#N)C#N` (stereo not drawn) yielded an IC50 of 1670 nM. Molecule `Nc1c(C(=O)NCc2ccco2)sc2nc3c(cc12)C(=O)CCC3` has an IC50 of 2340 nM. `O=C(COC(=O)c1cc(-c2ccco2)nc2ccccc12)NCc1ccc2c(c1)OCO2` showed an IC50 of 29400 nM. `COc1cccc(C(=O)Nc2ccc3c(c2)C(=O)c2ccccc2C3=O)c1` was tested, and the IC50 was 2120 nM. `NC(=O)c1ccsc1NC(=O)COC(=O)/C=C/c1ccc([N+](=O)[O-])cc1` gave an IC50 of 2880 nM. Work on `Cc1cc(C)c(S(=O)(=O)/N=C2/C=C(SCC(=O)O)C(=O)c3ccccc32)cc1C` yielded an IC50 of less than 400 nM. With `CN1C(=O)/C(=C/c2ccc(-c3ccccc3[N+](=O)[O-])o2)SC1=Nc1ccc(Cl)c(C(=O)O)c1` the IC50 was less than 400 nM. In the case of `CC(=O)c1cc(O)c2ccccc2c1O`, the IC50 is reported as less than 400 nM. `COc1cccc(/C=N/Nc2ncnc3c2[nH]c2ccc(C)cc23)c1OC` showed an IC50 of 4210 nM. `CN1CCc2cccc3c2[C@@H]1Cc1ccc(O)c(O)c1-3` showed an IC50 of 827 nM. Work on `CN(C)c1ccc(NS(=O)(=O)c2cccc(Cl)c2)cc1` yielded an IC50 greater than 54000 nM. Work on `O=C(O)C1Nc2c(C(=O)N3CCOCC3)cccc2C2C=CCC12` (stereo not drawn) yielded an IC50 greater than 54000 nM. `CCC(C)N1C(=O)/C(=C/c2ccc3c(c2)CCN3CCCCl)C(=O)NC1=S` (stereo not drawn) showed an IC50 of 1920 nM. For `COc1ccc(/C=N/NC(=O)c2ccc(O)cc2O)cc1CSc1ccccn1`, the IC50 was 2480 nM. For `COc1ccc(/C=C2/C(=O)N(c3nc4ccccc4s3)N=C2CSc2ccc(Cl)cc2)cc1`, the IC50 was less than 400 nM. With `O=C(COc1ccc2ccccc2c1)NNC(=O)c1ccc([N+](=O)[O-])cc1` the IC50 was 8480 nM. `COc1ccc(C2=CC(=O)C=CC2=O)cc1` showed an IC50 of less than 400 nM. In the case of `S=c1[nH]nc(-c2cc(-c3ccccc3)n[nH]2)n1/N=C/C(Br)=C/c1ccccc1`, the IC50 is reported as 7380 nM. Molecule `O=C(Nc1cccc(S(=O)(=O)NC2=NCCCCC2)c1)c1cc(-c2ccco2)nc2ccccc12` has an IC50 of less than 400 nM. With `O=C1c2ccccc2C(=O)N1/N=C/c1ccc(O)c(O)c1O` the IC50 was less than 400 nM. With `O=C(O)COc1ccc(/C=N/NC(=O)c2ccc(-c3csc(Nc4ccc(Cl)cc4)n3)cc2)cc1` the IC50 was 784 nM. Work on `CCOC(=O)c1sc2nc3c(SCC(=O)O)cc(C(=O)c4cc(F)ccc4O)cn3c(=O)c2c1C` yielded an IC50 of 2260 nM. `O=C1N=c2ccccc2=C1c1sc(Nc2ccc(O)cc2)nc1O` was tested, and the IC50 was 1200 nM. `COc1ccc(OC)c2c1C(=O)C(Cl)=C(Cl)C2=O` gave an IC50 of less than 400 nM. With `CCn1c(SCc2nc3sc(C(=O)O)c(C)c3c(=O)[nH]2)nc2ccccc21` the IC50 was 3320 nM. Molecule `COc1cc(/C=C/c2nc3ccccc3c(=O)n2-c2cccc(O)c2)ccc1O` has an IC50 of 10500 nM. For `O=C(NCCCCc1ccccc1)C1CC(c2ccccc2[N+](=O)[O-])=NO1` (stereo not drawn), the IC50 was greater than 54000 nM. In the case of `CN(C)c1ncc(C2=C(Cl)C(=O)C(N3CCCC3)=C(Cl)C2=O)s1`, the IC50 is reported as less than 400 nM. `O=[N+]([O-])c1ccc(N/N=C/c2ccc(O)c(O)c2O)c(S(=O)(=O)N2CCOCC2)c1` gave an IC50 of less than 400 nM. `CC1=C(SCCC#N)S/C(=C2\SC(C)=C(SCCC#N)S2)S1` was tested, and the IC50 was 2710 nM.
